Test results as given in US7070928B2, “Evolving new molecular function” (President and Fellows of Harvard College, priority 2001, dated 2006).

Assays:
αvβ3 integrin receptor = αvβ3 integrin receptor (Homo sapiens, UniProt P05106+P06756); conditions: benchmark αvβ3 integrin antagonists; cited from earlier work
Taq DNA polymerase = Taq DNA polymerase (Thermus aquaticus, UniProt P19821); experiment: acceptance of modified nucleotide triphosphates in PCR; assay type: biochemical; conditions: 30 PCR cycles, pUC19 template DNA, three natural deoxynucleotide triphosphates, gel electrophoresis (FIG. 51)
Source text: The ability of thermostable DNA polymerases suitable for PCR amplification to accept these modified nucleotide triphosphates containing metal-binding functionality. Non-natural nucleotide triphosphates were purified by ion exchange HPLC and added to PCR reactions containing Taq DNA polymerase, three natural deoxynucleotide triphosphates, pUC19 template DNA, and two DNA primers. Primers were chosen to generate PCR products ranging from 50 to 200 base pairs in length. Control PCR reactions contained the four natural deoxynucleotide triphosphates and no non-natural nucleotides. PCR reactions were analyzed by agarose or denaturing acrylamide gel electrophoresis. […] Previous findings on the acceptance of 7 by Taq DNA polymerase are in conflict, with-both non-acceptance (K. Sakthivel et al. Angew. Chem. Int. Ed. Engl. 1998, 37, 2872–2875) and acceptance (S. E. Lee et al. Nucleic Acids Res. 2001, 29, 1565–73) reported.

Chain of αvβ3 integrin receptor (P06756 31-889 limits assumed): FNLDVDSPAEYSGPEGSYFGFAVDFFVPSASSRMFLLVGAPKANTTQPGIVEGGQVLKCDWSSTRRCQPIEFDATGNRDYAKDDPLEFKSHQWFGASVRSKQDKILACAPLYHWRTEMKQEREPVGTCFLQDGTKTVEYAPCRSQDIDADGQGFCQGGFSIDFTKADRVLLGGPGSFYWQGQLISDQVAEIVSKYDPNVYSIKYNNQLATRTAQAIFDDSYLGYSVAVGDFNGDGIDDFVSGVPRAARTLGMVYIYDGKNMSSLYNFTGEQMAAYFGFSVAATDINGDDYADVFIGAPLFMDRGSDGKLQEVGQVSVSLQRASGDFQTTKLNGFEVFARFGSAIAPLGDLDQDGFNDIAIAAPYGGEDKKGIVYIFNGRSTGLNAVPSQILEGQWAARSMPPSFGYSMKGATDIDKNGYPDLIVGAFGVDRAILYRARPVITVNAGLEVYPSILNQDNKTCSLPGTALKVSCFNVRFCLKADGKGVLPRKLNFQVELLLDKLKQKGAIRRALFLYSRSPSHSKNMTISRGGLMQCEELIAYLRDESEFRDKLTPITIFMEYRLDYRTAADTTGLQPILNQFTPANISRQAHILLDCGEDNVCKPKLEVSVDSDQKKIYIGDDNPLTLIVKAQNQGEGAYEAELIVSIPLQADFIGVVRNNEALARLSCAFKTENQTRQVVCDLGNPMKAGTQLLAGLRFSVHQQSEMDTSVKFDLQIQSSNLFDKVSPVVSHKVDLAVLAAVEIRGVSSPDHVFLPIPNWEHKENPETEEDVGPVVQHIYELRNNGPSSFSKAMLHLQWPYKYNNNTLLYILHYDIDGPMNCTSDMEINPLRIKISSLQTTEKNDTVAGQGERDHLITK
Chain of αvβ3 integrin receptor (P06756 891-1048 partner limits assumed): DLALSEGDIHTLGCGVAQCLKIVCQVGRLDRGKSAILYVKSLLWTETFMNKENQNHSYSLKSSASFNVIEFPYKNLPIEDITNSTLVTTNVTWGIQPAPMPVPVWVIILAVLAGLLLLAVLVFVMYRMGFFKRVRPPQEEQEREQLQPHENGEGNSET
Chain of αvβ3 integrin receptor (P05106 27-788): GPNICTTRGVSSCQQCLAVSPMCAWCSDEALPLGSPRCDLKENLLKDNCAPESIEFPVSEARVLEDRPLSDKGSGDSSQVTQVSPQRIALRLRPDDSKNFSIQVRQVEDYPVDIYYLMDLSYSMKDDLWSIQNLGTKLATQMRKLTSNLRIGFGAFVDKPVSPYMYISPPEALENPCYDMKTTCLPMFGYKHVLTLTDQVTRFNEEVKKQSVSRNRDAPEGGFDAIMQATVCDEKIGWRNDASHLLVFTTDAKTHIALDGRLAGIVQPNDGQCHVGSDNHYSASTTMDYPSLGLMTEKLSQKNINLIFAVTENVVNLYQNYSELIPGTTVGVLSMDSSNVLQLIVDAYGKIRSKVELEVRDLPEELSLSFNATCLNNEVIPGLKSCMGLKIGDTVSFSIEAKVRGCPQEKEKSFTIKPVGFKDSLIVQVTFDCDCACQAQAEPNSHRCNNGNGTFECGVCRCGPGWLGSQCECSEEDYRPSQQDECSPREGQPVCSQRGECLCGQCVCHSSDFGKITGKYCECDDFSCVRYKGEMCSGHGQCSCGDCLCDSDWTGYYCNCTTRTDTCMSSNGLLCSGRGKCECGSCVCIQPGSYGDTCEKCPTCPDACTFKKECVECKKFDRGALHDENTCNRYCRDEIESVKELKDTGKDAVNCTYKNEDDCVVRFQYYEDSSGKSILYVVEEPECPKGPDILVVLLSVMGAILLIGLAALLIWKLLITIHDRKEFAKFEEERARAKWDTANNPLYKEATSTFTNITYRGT
Chain of Taq DNA polymerase (P19821 whole entry): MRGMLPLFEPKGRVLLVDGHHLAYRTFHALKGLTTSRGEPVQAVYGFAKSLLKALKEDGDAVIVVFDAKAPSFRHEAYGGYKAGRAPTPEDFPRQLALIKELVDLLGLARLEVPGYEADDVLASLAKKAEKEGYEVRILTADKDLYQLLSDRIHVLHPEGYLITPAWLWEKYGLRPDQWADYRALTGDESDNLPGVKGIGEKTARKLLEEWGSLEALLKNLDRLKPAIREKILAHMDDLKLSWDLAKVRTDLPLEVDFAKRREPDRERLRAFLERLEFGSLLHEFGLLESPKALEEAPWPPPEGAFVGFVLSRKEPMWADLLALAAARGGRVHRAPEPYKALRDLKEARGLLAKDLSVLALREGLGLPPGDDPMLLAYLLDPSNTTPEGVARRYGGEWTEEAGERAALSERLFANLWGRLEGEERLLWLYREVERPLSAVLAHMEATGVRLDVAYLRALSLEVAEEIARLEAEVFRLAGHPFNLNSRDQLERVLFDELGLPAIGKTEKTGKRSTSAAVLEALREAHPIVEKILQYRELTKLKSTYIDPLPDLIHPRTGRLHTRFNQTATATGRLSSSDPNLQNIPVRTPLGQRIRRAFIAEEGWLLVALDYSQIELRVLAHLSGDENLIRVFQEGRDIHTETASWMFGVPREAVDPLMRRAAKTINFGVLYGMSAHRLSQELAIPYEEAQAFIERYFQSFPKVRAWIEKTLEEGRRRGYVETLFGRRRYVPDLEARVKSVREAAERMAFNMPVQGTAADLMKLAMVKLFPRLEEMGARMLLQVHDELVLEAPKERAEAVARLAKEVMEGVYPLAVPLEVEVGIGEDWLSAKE

## GRGDSPK [linear peptide, benchmark αvβ3 integrin antagonist]
αvβ3 integrin receptor
  IC50: 210 nM

## O=C(NCC=Cc1cn(C2CC(O)C(COP(=O)(O)OP(=O)(O)OP(=O)(O)O)O2)c(=O)[nH]c1=O)C(F)(F)F (centres unmarked) [triphosphate of 23]
Taq DNA polymerase
  incorporation by Taq DNA polymerase: not an efficient polymerase substrate
